Consider 5 compounds from EP1808181A1, “Polysaccharide-cyclodextrin conjugates” (B. BRAUN MELSUNGEN AG, priority 2006, dated 2007).

≈ marks a conversion by molar mass, not a printed value.

Series [1] can be described thus: Haemolysis of washed human erythrocytes by cyclodextrin derivatives. The class given is cell-based, menschlicher. The conditions noted are these: washed human erythrocytes (0,25%), 10 mM isotonic phosphate buffer pH 7,4, 37°C/30 min; read graphically against complete lysis in water; read-out: Cyclodextrin-Konzentration (frei bzw.gebunden) zur halb-maximalen Hämolyse. As for the experimental part: (§1) Die Hämolyserate der in Tabelle III aufgeführten Cyclodextrin-Derivate wurde wie folgt bestimmt. Humane Erythrozyten wurden aus Citratblut durch Zentrifugation gewonnen (1000 x g / 10 Minuten), in 10 mM isotonem Phosphatpuffer (pH 7,4) aufgenommen und dreimal gewaschen und in diesem Puffer auf einen Hämatokrit von 5% eingestellt. Aliquote der gewaschenen Erythrozyten (0,1 ml) wurden zu 4 ml der in der Tabelle 3 aufgelisteten Cyclodextrin-Derivate (jeweils 5 unterschiedliche Konzentrationen) zugegeben, gemischt und 30 Minuten bei 37°C und gelegentlichem leichten Schütteln inkubiert. Nach abermaliger Zentrifugation (1000 x g / 10 Minuten) wurde das freigesetzten Hämoglobin im Überstand spektralphotometrisch bei 543 nm bestimmt. Die Hämolyseraten wurde aus den erhaltenen Absoptionswerten im Vergleich mit einer kompletter […] in Wasser ermittelt und die Cyclodextrin- Konzentrationen mit halbmaximaler Hämolyse graphisch ermittelt.
(§2) Tabelle III : Hämolyse gewaschener menschlicher Erythrozyten (0,25%) in 10 mM isotonem Phosphatpuffer (pH 7,4) bei 37°C/30 Minuten durch Cyclodextrin-Derivate

The subject of series [2] is Humane Erythrozyten. The description is as above. In kind it is cell-based, menschlicher. The conditions noted are these: washed human erythrocytes (0,25%), 10 mM isotonic phosphate buffer pH 7,4, 37°C/30 min; read graphically against complete lysis in water; read-out: Cyclodextrin-Konzentration (frei bzw.gebunden) zur halb-maximalen Hämolyse. As for the experimental part:
as §1, §2

Series [3] in a line: physchem. The following applies: water.

`OC[C@H]1O[C@@H]2O[C@H]3[C@H](O)[C@@H](O)[C@@H](O[C@H]4[C@H](O)[C@@H](O)[C@@H](O[C@H]5[C@H](O)[C@@H](O)[C@@H](O[C@H]6[C@H](O)[C@@H](O)[C@@H](O[C@H]7[C@H](O)[C@@H](O)[C@@H](O[C@H]8[C@H](O)[C@@H](O)[C@@H](O[C@H]1[C@H](O)[C@H]2O)O[C@@H]8CO)O[C@@H]7CO)O[C@@H]6CO)O[C@@H]5CO)O[C@@H]4CO)O[C@@H]3CO` [β-Cyclodextrin]: in series [1], the HC50 at 0.5 h stood at 5 mM.
As to α-Cyclodextrin, in series [2], the HC50 is 11 mM.
Still for that read-out and setting: as for γ--Cyclodextrin, the figure is 30 mM.
As for 2-HP-β-Cyclodextrin, in series [2], the HC50 was determined as 10 mM.
`CC(=O)[C@H]1CC[C@H]2[C@@H]3CCC4=CC(=O)CC[C@]4(C)[C@H]3CC[C@]12C` [Progesteron]: in series [3], the thermodynamic solubility (in general, solubility found after equilibrating the solid with the medium) at 72 h came out at 15 µg/mL (≈ 47.7 µM).
